Patent publication US9326513B2, “Fungicidal compositions” (Syngenta Participations AG, priority 2011, dated 2016)
Where two headings read alike, the source gives them in different places.

How the values were obtained:
[1] = tested on: Septoria tritici; test: Septoria tritici (leaf blotch), YBG microtiter plate, photometric growth inhibition after 6 days; format: cell-based; settings: Zymoseptoria tritici, 144 h
Description: In the following Tables ‘Activity (%)’ means the assessed experimental activity (% disease control in this test when compared to untreated control leaf disks under the same conditions, which show extensive disease development) and “P” is the expected value calculated (expected) activity according to the COLBY formula (see above). The column headed ‘S?’ indicates whether or not synergy was observed, with ‘y’ meaning that synergy was observed.
Septoria tritici (Leaf Blotch):
After placing solutions of the test compounds (containing 0.2% DMSO) into a microtiter plate (96-well format), an equal amount of the nutrient broth (YBG) was added to each of the well. Finally the fungal spore solution was added. The test plates were incubated at 20° C. The inhibition of growth was determined photometrically after 6 days and the activity calculated in relation to untreated control.

[2] = tested on: Septoria tritici; test: Septoria tritici on wheat, preventive treatment; format: in vivo; settings: solo, wheat Riband, 1 day preventive, 18 days after application
[3] = tested on: Mycosphaerella arachidis (y. Cercospora arachidicola); test: Mycosphaerella arachidis (brown leaf spot of groundnut), PDB microtiter plate, visual after 5-6 days; format: cell-based
[4] = tested on: Botrytis cinerea; test: Botrytis cinerea (gray mould), PDB microtiter plate, visual after 72 hrs; format: cell-based
[5] = tested on: Septoria tritici; test: Septoria tritici (leaf blotch), PDB microtiter plate, visual after 72 hrs; format: cell-based; settings: Zymoseptoria tritici, read-out: Activity (%)
[6] = tested on: Puccinia recondita f. sp. tritici; test: Puccinia recondita f. sp. tritici / wheat / leaf disc curative (brown rust); format: in vivo; settings: foliar, compared to untreated control leaf disks, read-out: disease control
Description: Puccinia recondita f. sp. tritici/Wheat/Leaf Disc Curative (Brown Rust) Wheat leaf segments cv. Kanzler are placed on agar in multiwell plates (24-well format). The leaf segments are inoculated with a spore suspension of the fungus. Plates were stored in darkness at 19° C. and 75% rh. The formulated test compound diluted in water was applied 1 day after inoculation.

[7] = tested on: Blumeria graminis f. sp. tritici (Erysiphe graminis f. sp. tritici); test: Blumeria graminis f. sp. tritici / wheat / leaf disc preventative (powdery mildew on wheat); format: in vivo; settings: foliar, compared to untreated control leaf disks, read-out: disease control
Method in brief: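 Preventative leaf-disc test: compound (200 ppm) was sprayed onto cv. Kanzler wheat segments, which were dusted with conidia from infected plants 1 day after application. After incubation at 20° C and 60% rh, disease control relative to untreated segments was rated 6-8 days after application.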

[8] = tested on: Pyrenophora teres; test: Pyrenophora teres / barley / leaf disc preventative (net blotch); format: in vivo; settings: foliar, compared to untreated control leaf disks, read-out: disease control
Description: Pyrenophora teres/Barley/Leaf Disc Preventative (Net Blotch) Barley leaf segments cv. Hasso were placed on agar in a multiwell plate (24-well format) and sprayed with the formulated test compound diluted in water. The leaf segments were inoculated with a spore suspension of the fungus 2 days after application.

[9] = tested on: Puccinia recondita f. sp. tritici; test: Puccinia recondita f. sp. tritici / wheat / leaf disc preventative (brown rust); format: in vivo; settings: foliar, compared to untreated control leaf disks, read-out: disease control
Description: Puccinia recondita f. sp. tritici/Wheat/Leaf Disc Preventative (Brown Rust) Wheat leaf segments cv. Kanzler were placed on agar in multiwell plates (24-well format) and sprayed with the formulated test compound diluted in water. The leaf disks were inoculated with a spore suspension of the fungus 1 day after application.

SMILES	pest or weed control at 200 ppm [6] [%]	pest or weed control at 200 ppm [7] [%]	pest or weed control at 200 ppm [8] [%]	melting point [°C]	pest or weed control at 200 ppm [9] [%]	also measured
Fc1ccc([C@]2(Cn3cncn3)O[C@H]2c2ccccc2Cl)cc1 (racemic) [Epoxiconazole]	–	–	–	–	–	inhibition of growth at 0.15625 ppm ([1]; solo, rate 0.15625 ppm, read-out: Activity): 65%; inhibition of growth at 0.625 ppm ([1]; solo, rate 0.625 ppm): 71%
OC(c1cccnc1)c1c(-c2ccc(Cl)cc2F)noc1-c1ccc(F)cc1F (stereo not shown) [(VII), [3-(4-chloro-2-fluoro-phenyl)-5-(2,4-difluoro-phenyl)-isoxazol-4-yl]-pyridin-3-yl-methanol, reference compound]	–	–	–	–	–	Activity ([2]; 3 g a.i./ha): 0%; Activity ([2]; 9 g a.i./ha): 20%; Activity ([2]; 27 g a.i./ha): 96%
CC1COC(Cn2cncn2)(c2ccc(Oc3ccc(Cl)cc3)cc2Cl)O1 (stereo not shown) [Difenoconazole]	–	–	–	–	–	inhibition of growth at 0.15625 ppm ([1]; read-out: Activity): 48%; Activity ([2]; 0.33 g a.i./ha): 0%; Activity ([2]; 1 g a.i./ha): 0%; Activity ([2]; 3 g a.i./ha): 0%; Activity ([2]; 9 g a.i./ha): 3%; Activity ([2]; 27 g a.i./ha): 5%
N#Cc1c[nH]cc1-c1cccc2c1OC(F)(F)O2 [Fludioxonil]	–	–	–	–	–	inhibition at 0.00390625 ppm ([3]; Mycosphaerella arachidis, read-out: Activity (%), single compound, 0.00390625 ppm): 0%; inhibition at 0.0078125 ppm ([3]; Mycosphaerella arachidis, read-out: Activity (%), single compound, 0.0078125 ppm): 0%; inhibition at 0.015625 ppm ([3]; Mycosphaerella arachidis, read-out: Activity (%), single compound, 0.015625 ppm): 0%; inhibition at 0.03125 ppm ([3]; Mycosphaerella arachidis, read-out: Activity (%), single compound, 0.03125 ppm): 0%; inhibition at 0.0625 ppm ([3]; Mycosphaerella arachidis, read-out: Activity (%), single compound, 0.0625 ppm): 0%; inhibition at 0.125 ppm ([3]; Mycosphaerella arachidis, read-out: Activity (%), single compound, 0.125 ppm): 0%; inhibition at 0.25 ppm ([3]; Mycosphaerella arachidis, read-out: Activity (%), single compound, 0.25 ppm): 0%; inhibition at 0.5 ppm ([3]; Mycosphaerella arachidis, read-out: Activity (%), single compound, 0.5 ppm): 70%; Activity (%) ([3]; single compound, 0.5 ppm): 50%; inhibition at 0.03125 ppm ([4]; Botrytis cinerea, read-out: Activity (%), alone, rate 0.03125 ppm): 0%; inhibition at 0.0625 ppm ([4]; Botrytis cinerea, read-out: Activity (%), alone, rate 0.0625 ppm): 70%; Activity (%) ([4]; alone, rate 0.0625 ppm): 50%; inhibition at 0.25 ppm [5]: 70%
CCCN(CCOc1c(Cl)cc(Cl)cc1Cl)C(=O)n1ccnc1 [Prochloraz]	–	–	–	–	–	inhibition of growth at 0.015625 ppm ([1]; read-out: Activity): 48%; inhibition of growth at 0.03125 ppm ([1]; read-out: Activity): 80%
CCN(C)/C=N/c1cc(Br)c(OCc2ccnc(Cl)c2)nc1C [Q.111]	≥ 50	≥ 50	≥ 50	57 to 59	≥ 50	–
CCN(C)/C=N/c1cc(Br)c(OCc2cccc(C)c2)nc1C [Q.128]	≥ 50	≥ 50	≥ 50	60 to 62	≥ 50	–
CCN(C)/C=N/c1cc(Br)c(OCCc2ccc(F)cc2)nc1C [Q.129]	≥ 50	≥ 50	≥ 50	46 to 48	≥ 50	–
CCN(C)/C=N/c1cc(Br)c(OC2CCCc3ccc(-c4cccc(F)c4)cc32)nc1C (stereo not shown) [Q.137]	–	–	–	43 to 45	≥ 50	–
CCN(C)/C=N/c1cc(Br)c(OCc2cccc(C(F)(F)F)c2)nc1C [Q.153]	≥ 50	≥ 50	≥ 50	43 to 44	≥ 50	–
CCN(C)/C=N/c1cc(Br)c(OCc2cc(C)ccc2C)nc1C [Q.154]	≥ 50	≥ 50	≥ 50	53 to 57	≥ 50	–
C#Cc1cccc(COc2nc(C)c(/N=C/N(C)CC)cc2Br)c1 [Q.195]	≥ 50	≥ 50	≥ 50	52 to 54	≥ 50	–
CCN(C)/C=N/c1cc(Br)c(OCc2cc(C)cc(C)c2)nc1C [Q.207]	≥ 50	≥ 50	≥ 50	57 to 58	≥ 50	–
CCN(C)/C=N/c1cc(Br)c(OCc2cc(C)ns2)nc1C [Q.235]	≥ 50	≥ 50	≥ 50	55 to 57	≥ 50	–
CCN(C)/C=N/c1cc(Br)c(OCc2cccc(NC(=O)OC(C)(C)C)c2)nc1C [Q.236]	≥ 50	–	≥ 50	40 to 42	≥ 50	–
CCN(C)/C=N/c1cc(Br)c(OC(C)c2ccccc2-c2ccccc2)nc1C (stereo not shown) [Q.295]	–	–	–	59 to 62	≥ 50	–
CCN(C)/C=N/c1cc(Br)c(OCc2ccccc2F)nc1C [Q.298]	≥ 50	≥ 50	≥ 50	57 to 61	≥ 50	–
CCN(C)/C=N/c1cc(Br)c(OCc2ccccc2Cl)nc1C [Q.300]	≥ 50	≥ 50	–	53 to 56	≥ 50	–
CCN(C)/C=N/c1cc(Br)c(OCc2ccc(F)cc2C)nc1C [Q.320]	≥ 50	≥ 50	≥ 50	27 to 30	≥ 50	–
CCN(C)/C=N/c1cc(Br)c(OCc2cccc(F)c2C)nc1C [Q.322]	≥ 50	≥ 50	≥ 50	67 to 68	≥ 50	–
CCN(C)/C=N/c1cc(Br)c(OCc2c(C)cccc2C)nc1C [Q.325]	≥ 50	≥ 50	–	56 to 57	≥ 50	–
CCN(C)/C=N/c1cc(Br)c(OCc2c(F)cccc2F)nc1C [Q.326]	≥ 50	≥ 50	≥ 50	61 to 62	≥ 50	–
CCN(C)/C=N/c1cc(Br)c(OCCc2cc(C)cc(C)c2)nc1C [Q.422]	–	–	–	61 to 63	–	–
CC(C)(C)C(O)(CCc1ccc(Cl)cc1)Cn1cncn1 (stereo not shown) [Tebuconazole]	–	–	–	–	–	inhibition of growth at 1.25 ppm ([1]; solo, rate 1.25 ppm): 0%; inhibition of growth at 2.5 ppm ([1]; solo, rate 2.5 ppm): 47%; inhibition of growth at 5 ppm ([1]; solo, rate 5 ppm): 73%
